What was measured:
Assay in all cases: relative viability (nuclei count vs DMSO), 5 days (fraction); higher = more cells survive
Tozasertib = compound: Cc1cc(Nc2cc(N3CCN(C)CC3)nc(Sc3ccc(NC(=O)C4CC4)cc3)n2)n[nH]1 [Tozasertib]
Outline: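 Viability was read as treated-well nuclei divided by vehicle-well nuclei, using the median across plates. Lung cancer cell lines in 1536-well plates were kept overnight at 37 °C, pinned with five √10-spaced library-drug doses, and after 5 days were Hoechst-stained, imaged at 4× and counted in MetaXpress. Plates passed only with control CV below 25% and at least one doubling.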

Tozasertib + Foretinib = compound: Cc1cc(Nc2cc(N3CCN(C)CC3)nc(Sc3ccc(NC(=O)C4CC4)cc3)n2)n[nH]1 [Tozasertib] + COc1cc2c(Oc3ccc(NC(=O)C4(C(=O)Nc5ccc(F)cc5)CC4)cc3F)ccnc2cc1OCCCN1CCOCC1 [Foretinib] (partner 0.25 µM)
Outline: (§1)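 Relative viability equals treated-well nuclei counts divided by vehicle-well nuclei counts. Counts came from 4× images of lung cancer cell lines grown in 1536-well plates for 5 days after pin-tool dosing on the day after seeding. Dosing used one drug alone or a fixed anchor-drug dose plus five library-drug doses (not always all listed) in √10 steps, and values are medians of duplicate plates.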

Tozasertib + Crizotinib = compound: Cc1cc(Nc2cc(N3CCN(C)CC3)nc(Sc3ccc(NC(=O)C4CC4)cc3)n2)n[nH]1 [Tozasertib] + C[C@@H](Oc1cc(-c2cnn(C3CCNCC3)c2)cnc1N)c1c(Cl)ccc(F)c1Cl [Crizotinib] (partner 1 µM)
Outline: as §1

Tozasertib + Bortezomib = compound: Cc1cc(Nc2cc(N3CCN(C)CC3)nc(Sc3ccc(NC(=O)C4CC4)cc3)n2)n[nH]1 [Tozasertib] + CC(C)C[C@H](NC(=O)[C@H](Cc1ccccc1)NC(=O)c1cnccn1)B(O)O [Bortezomib] (partner 0.002 µM)
Outline: as §1

Tozasertib + Navitoclax = compound: Cc1cc(Nc2cc(N3CCN(C)CC3)nc(Sc3ccc(NC(=O)C4CC4)cc3)n2)n[nH]1 [Tozasertib] + CC1(C)CCC(c2ccc(Cl)cc2)=C(CN2CCN(c3ccc(C(=O)NS(=O)(=O)c4ccc(N[C@H](CCN5CCOCC5)CSc5ccccc5)c(S(=O)(=O)C(F)(F)F)c4)cc3)CC2)C1 [Navitoclax] (partner 0.5 µM)
Outline: as §1

Tozasertib + Linsitinib = compound: Cc1cc(Nc2cc(N3CCN(C)CC3)nc(Sc3ccc(NC(=O)C4CC4)cc3)n2)n[nH]1 [Tozasertib] + C[C@]1(O)C[C@@H](c2nc(-c3ccc4ccc(-c5ccccc5)nc4c3)c3c(N)nccn32)C1 [Linsitinib] (partner 1 µM)
Outline: as §1

Tozasertib + Alpelisib = compound: Cc1cc(Nc2cc(N3CCN(C)CC3)nc(Sc3ccc(NC(=O)C4CC4)cc3)n2)n[nH]1 [Tozasertib] + Cc1nc(NC(=O)N2CCC[C@H]2C(N)=O)sc1-c1ccnc(C(C)(C)C(F)(F)F)c1 [Alpelisib] (partner 2 µM)
Outline: as §1

Tozasertib + Olaparib = compound: Cc1cc(Nc2cc(N3CCN(C)CC3)nc(Sc3ccc(NC(=O)C4CC4)cc3)n2)n[nH]1 [Tozasertib] + O=C(c1cc(Cc2n[nH]c(=O)c3ccccc23)ccc1F)N1CCN(C(=O)C2CC2)CC1 [Olaparib] (partner 8 µM)
Outline: as §1

Tozasertib + Pictilisib = compound: Cc1cc(Nc2cc(N3CCN(C)CC3)nc(Sc3ccc(NC(=O)C4CC4)cc3)n2)n[nH]1 [Tozasertib] + CS(=O)(=O)N1CCN(Cc2cc3nc(-c4cccc5[nH]ncc45)nc(N4CCOCC4)c3s2)CC1 [Pictilisib] (partner 1 µM)
Outline: as §1

Tozasertib + Lapatinib = compound: Cc1cc(Nc2cc(N3CCN(C)CC3)nc(Sc3ccc(NC(=O)C4CC4)cc3)n2)n[nH]1 [Tozasertib] + CS(=O)(=O)CCNCc1ccc(-c2ccc3ncnc(Nc4ccc(OCc5cccc(F)c5)c(Cl)c4)c3c2)o1 [Lapatinib] (partner 2 µM)
Outline: as §1

Cell Line: Calu-6
- relative viability (Tozasertib; 0.004 µM): 1.06
- relative viability (Tozasertib; 0.01265 µM): 0.953
- relative viability (Tozasertib; 0.04 µM): 0.998
- relative viability (Tozasertib; 0.1265 µM): 0.546
- relative viability (Tozasertib + Foretinib; first compound 0.004 µM): 0.946
- relative viability (Tozasertib + Foretinib; first compound 0.01265 µM): 0.903
- relative viability (Tozasertib + Foretinib; first compound 0.04 µM): 0.69
- relative viability (Tozasertib + Foretinib; first compound 0.1265 µM): 0.229
- relative viability (Tozasertib + Crizotinib; first compound 0.004 µM): 0.796
- relative viability (Tozasertib + Crizotinib; first compound 0.04 µM): 0.433
- relative viability (Tozasertib + Crizotinib; first compound 0.1265 µM): 0.265
- relative viability (Tozasertib + Bortezomib; first compound 0.004 µM): 0.987
- relative viability (Tozasertib + Bortezomib; first compound 0.01265 µM): 1.03
- relative viability (Tozasertib + Bortezomib; first compound 0.04 µM): 1.08
- relative viability (Tozasertib + Bortezomib; first compound 0.1265 µM): 0.391
- relative viability (Tozasertib + Navitoclax; first compound 0.004 µM): 0.85
- relative viability (Tozasertib + Navitoclax; first compound 0.01265 µM): 0.88
- relative viability (Tozasertib + Navitoclax; first compound 0.04 µM): 0.779
- relative viability (Tozasertib + Navitoclax; first compound 0.1265 µM): 0.153
- relative viability (Tozasertib + Linsitinib; first compound 0.004 µM): 0.952
- relative viability (Tozasertib + Linsitinib; first compound 0.01265 µM): 0.853
- relative viability (Tozasertib + Linsitinib; first compound 0.04 µM): 1
- relative viability (Tozasertib + Linsitinib; first compound 0.1265 µM): 0.309
- relative viability (Tozasertib + Alpelisib; first compound 0.004 µM): 1.19
- relative viability (Tozasertib + Alpelisib; first compound 0.01265 µM): 0.96
- relative viability (Tozasertib + Alpelisib; first compound 0.04 µM): 0.797
- relative viability (Tozasertib + Alpelisib; first compound 0.1265 µM): 0.402
- relative viability (Tozasertib + Olaparib; first compound 0.004 µM): 0.557
- relative viability (Tozasertib + Olaparib; first compound 0.01265 µM): 0.516
- relative viability (Tozasertib + Olaparib; first compound 0.04 µM): 0.595
- relative viability (Tozasertib + Olaparib; first compound 0.1265 µM): 0.293
- relative viability (Tozasertib + Pictilisib; first compound 0.004 µM): 0.946
- relative viability (Tozasertib + Pictilisib; first compound 0.01265 µM): 0.862
- relative viability (Tozasertib + Pictilisib; first compound 0.04 µM): 0.781
- relative viability (Tozasertib + Pictilisib; first compound 0.1265 µM): 0.259
- relative viability (Tozasertib + Lapatinib; first compound 0.004 µM): 1.17
- relative viability (Tozasertib + Lapatinib; first compound 0.01265 µM): 0.983
- relative viability (Tozasertib + Lapatinib; first compound 0.04 µM): 1.08
- relative viability (Tozasertib + Lapatinib; first compound 0.1265 µM): 0.293

Cell Line: NCI-H1299
- relative viability (Tozasertib; 0.004 µM): 1.04
- relative viability (Tozasertib; 0.01265 µM): 1.02
- relative viability (Tozasertib; 0.04 µM): 1.01
- relative viability (Tozasertib; 0.1265 µM): 1.02
- relative viability (Tozasertib + Foretinib; first compound 0.004 µM): 1.17
- relative viability (Tozasertib + Foretinib; first compound 0.01265 µM): 1.07
- relative viability (Tozasertib + Foretinib; first compound 0.04 µM): 1.08
- relative viability (Tozasertib + Foretinib; first compound 0.1265 µM): 0.499
- relative viability (Tozasertib + Crizotinib; first compound 0.004 µM): 0.998
- relative viability (Tozasertib + Crizotinib; first compound 0.01265 µM): 0.996
- relative viability (Tozasertib + Crizotinib; first compound 0.04 µM): 0.952
- relative viability (Tozasertib + Crizotinib; first compound 0.1265 µM): 0.761
- relative viability (Tozasertib + Bortezomib; first compound 0.004 µM): 1.07
- relative viability (Tozasertib + Bortezomib; first compound 0.01265 µM): 1.01
- relative viability (Tozasertib + Bortezomib; first compound 0.04 µM): 1.02
- relative viability (Tozasertib + Bortezomib; first compound 0.1265 µM): 1.03
- relative viability (Tozasertib + Navitoclax; first compound 0.004 µM): 1.1
- relative viability (Tozasertib + Navitoclax; first compound 0.01265 µM): 1.04
- relative viability (Tozasertib + Navitoclax; first compound 0.04 µM): 1.06
- relative viability (Tozasertib + Navitoclax; first compound 0.1265 µM): 1.07
- relative viability (Tozasertib + Linsitinib; first compound 0.004 µM): 0.952
- relative viability (Tozasertib + Linsitinib; first compound 0.01265 µM): 0.979
- relative viability (Tozasertib + Linsitinib; first compound 0.04 µM): 0.988
- relative viability (Tozasertib + Linsitinib; first compound 0.1265 µM): 0.597
- relative viability (Tozasertib + Alpelisib; first compound 0.004 µM): 1.08
- relative viability (Tozasertib + Alpelisib; first compound 0.01265 µM): 1.13
- relative viability (Tozasertib + Alpelisib; first compound 0.04 µM): 1.04
- relative viability (Tozasertib + Alpelisib; first compound 0.1265 µM): 1.05
- relative viability (Tozasertib + Olaparib; first compound 0.004 µM): 0.982
- relative viability (Tozasertib + Olaparib; first compound 0.01265 µM): 0.939
- relative viability (Tozasertib + Olaparib; first compound 0.04 µM): 0.943
- relative viability (Tozasertib + Olaparib; first compound 0.1265 µM): 0.961
- relative viability (Tozasertib + Pictilisib; first compound 0.004 µM): 0.951
- relative viability (Tozasertib + Pictilisib; first compound 0.01265 µM): 0.808
- relative viability (Tozasertib + Pictilisib; first compound 0.04 µM): 0.75
- relative viability (Tozasertib + Pictilisib; first compound 0.1265 µM): 0.615
- relative viability (Tozasertib + Lapatinib; first compound 0.004 µM): 1.03
- relative viability (Tozasertib + Lapatinib; first compound 0.01265 µM): 0.947
- relative viability (Tozasertib + Lapatinib; first compound 0.1265 µM): 0.703

— the supplement of paper PMC10307832
